pEC50: −log10 of the molar value.
System: HCV replication
Assay: Replicon Assay (Huh-lucubineo-ET cells, luciferase readout)
Format: cell-based
Details: Hepatitis C virus; ET (Huh-lucubineo-ET) HCV replicon cell line; luciferase activity 48-72 hours after compound addition; 6 dilutions
Outline: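 Huh-lucubineo-ET cells stably carrying a firefly luciferase-ubiquitin-neo/NS3-5B ET replicon (adaptive mutations E1202G, T1280I, K1846T) were plated 24 h before compound, then treated at 5 or 50 μM or six 3-fold dilutions. Luciferase read 48-72 h later; % inhibition vs no-compound control, EC50/TC50 from Hill-equation fit.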

**Q.** With COc1ccc(-c2cnc(Cn3cc4nc(-c5cccc(F)c5F)nc-4cn3)nc2)c(C(F)(F)F)c1 [Compound 265, 2-(2,3-Difluoro-phenyl)-5-[5-(4-methoxy-2-trifluoromethyl-phenyl)-pyrimidin-2-ylmethyl]-5H-imidazo[4,5-d]pyridazine] as the compound, how does the pEC50 read?
**A.** Its pEC50 is 6.64.

**Q.** CCCOc1ccc(-c2cnc(Cn3cc4nc(-c5cccc(F)c5F)nc-4cn3)nc2)c(C(F)(F)F)c1 [Compound 266, 2-(2,3-Difluoro-phenyl)-5-[5-(4-propoxy-2-trifluoromethyl-phenyl)-pyrimidin-2-ylmethyl]-5H-imidazo[4,5-d]pyridazine] was tested. Which pEC50 did it give?
**A.** Its pEC50 is 6.66.

**Q.** With Fc1ccccc1-c1nc2cnn(Cc3ccc(-c4ccc(C(F)(F)F)cc4C(F)(F)F)cn3)cc-2n1 [Compound 267, 5-[5-(2,4-Bis-trifluoromethyl-phenyl)-pyridin-2-ylmethyl]-2-(2-fluoro-phenyl)-5H-imidazo[4,5-d]pyridazine] as the compound, how does the pEC50 read?
**A.** Its pEC50 is 5.89.

**Q.** How did the pEC50 turn out when Cc1nc(-c2ccc(Cn3cc4nc(-c5cccc(F)c5F)nc-4cn3)cc2)cs1 [Compound 268, 2-(2,3-Difluoro-phenyl)-5-[4-(2-methyl-thiazol-4-yl)-benzyl]-5H-imidazo[4,5-d]pyridazine] was run?
**A.** The pEC50 was ≤ 4.30.

**Q.** How did the pEC50 turn out when Fc1cccc(-c2nc3cnn(CCCCc4ccc(C(F)(F)F)cc4C(F)(F)F)cc-3n2)c1F [Compound 269, 5-[4-(2,4-Bis-trifluoromethyl-phenyl)-butyl]-2-(2,3-difluoro-phenyl)-5H-imidazo[4,5-d]pyridazine] was run?
**A.** The pEC50 was 4.60.

**Q.** Fc1cccc(-c2nc3cnn(CCCc4ccc(C(F)(F)F)cc4C(F)(F)F)cc-3n2)c1F [Compound 270, 5-[3-(2,4-Bis-trifluoromethyl-phenyl)-propyl]-2-(2,3-difluoro-phenyl)-5H-imidazo[4,5-d]pyridazine] was tested. Which pEC50 did it give?
**A.** The pEC50 was 4.28.

**Q.** How did the pEC50 turn out when COc1ccc(-c2ncc(Cn3cc4nc(-c5cccc(F)c5F)nc-4cn3)cn2)c(C(F)(F)F)c1 [Compound 271, 2-(2,3-Difluoro-phenyl)-5-[2-(4-methoxy-2-trifluoromethyl-phenyl)-pyrimidin-5-ylmethyl]-5H-imidazo[4,5-d]pyridazine] was run?
**A.** Its pEC50 is 7.31.

**Q.** How did the pEC50 turn out when Fc1cccc(-c2nc3cnn(Cc4ccc(-c5ccsc5)cc4)cc-3n2)c1F [Compound 272, 2-(2,3-Difluoro-phenyl)-5-(4-thiophen-3-yl-benzyl)-5H-imidazo[4,5-d]pyridazine] was run?
**A.** Its pEC50 is 4.73.

**Q.** How did the pEC50 turn out when O=C(Nc1ccccc1)c1ccc(Cn2cc3nc(-c4cccc(F)c4F)nc-3cn2)cc1 [Compound 273, 4-[2-(2,3-Difluoro-phenyl)-imidazo[4,5-d]pyridazin-5-ylmethyl]-N-phenyl-benzamide] was run?
**A.** Its pEC50 is ≤ 4.30.

**Q.** With COc1ccc(NC(=O)c2ccc(Cn3cc4nc(-c5cccc(F)c5F)nc-4cn3)cc2)cc1 [Compound 274, 4-[2-(2,3-Difluoro-phenyl)-imidazo[4,5-d]pyridazin-5-ylmethyl]-N-(4-methoxy-phenyl)-benzamide] as the compound, how does the pEC50 read?
**A.** The pEC50 was ≤ 4.30.

**Q.** O=S(=O)(c1ccc(Cn2cc3nc(-c4cccc(F)c4F)nc-3cn2)cc1)N1CCOCC1 [Compound 275, 2-(2,3-Difluoro-phenyl)-5-[4-(morpholine-4-sulfonyl)-benzyl]-5H-imidazo[4,5-d]pyridazine] was tested. Which pEC50 did it give?
**A.** The pEC50 was ≤ 4.30.

**Q.** With Fc1cccc(-c2nc3cnn(Cc4ccc5nsnc5c4)cc-3n2)c1F [Compound 276, 5-Benzo[1,2,5]thiadiazol-5-ylmethyl-2-(2,3-difluoro-phenyl)-5H-imidazo[4,5-d]pyridazine] as the compound, how does the pEC50 read?
**A.** The pEC50 was ≤ 4.30.

**Q.** Cc1nc(-c2ccc(Cn3cc4nc(-c5cccc(F)c5F)nc-4cn3)cc2)no1 [Compound 277, 2-(2,3-Difluoro-phenyl)-5-[4-(5-methyl-[1,2,4]oxadiazol-3-yl)-benzyl]-5H-imidazo[4,5-d]pyridazine] was tested. Which pEC50 did it give?
**A.** Its pEC50 is ≤ 4.30.

**Q.** How did the pEC50 turn out when Fc1cccc(-c2nc3cnn(Cc4ccc5ccccc5c4)cc-3n2)c1F [Compound 278, 2-(2,3-Difluoro-phenyl)-5-naphthalen-2-ylmethyl-5H-imidazo[4,5-d]pyridazine] was run?
**A.** The pEC50 was ≤ 4.30.

**Q.** Fc1cccc(-c2nc3cnn(Cc4cccc(Oc5ccccc5)c4)cc-3n2)c1F [Compound 279, 2-(2,3-Difluoro-phenyl)-5-(3-phenoxy-benzyl)-5H-imidazo[4,5-d]pyridazine] was tested. Which pEC50 did it give?
**A.** The pEC50 was 4.70.
